Like-named read-outs stand apart in the source and are kept apart here. Values belong to the compound of their own block, whether it stands above or below them.
Tests used:
[1] = Pharmacokinetics in subjects with varying degrees of renal function (Example 4); format: in vivo, human
Description: This phase 1, open-label, single-dose, parallel-group study was designed in accordance with the FDA guidance for the design and analysis of studies that assess the influence of impaired renal function on PK. Subjects were enrolled into three renal function groups defined based on eGFR calculated using the Chronic Kidney Disease Epidemiology Collaboration equation as follows: […]
Control(normal renal function or mild renal impairment:eGFR≥60 mL/min) • Moderate to severe renal impairment (eGFR 15 to 59 mL/min) • Kidney failure (eGFR<15 mL/min, including subjects on dialysis)
All subjects received a single 10 mg dose of baxdrostat in an open-label manner. […] All subjects were required to fast for a minimum of 10 hours prior to baxdrostat administration. They were then dosed at 8:00 AM (±2 hours) with two 5 mg tablets administered with approximately 240 mL of water. Subjects continued fasting for a minimum of 4 hours after dosing. No other medications were permitted within 2 hours prior to dosing and for 2 hours after dosing with baxdrostat. Subjects on dialysis received the study drug on a non-dialysis day. Blood and urine sample collection for PK analysis continued for 7 days and was proceeded by a follow-up phone call 3±1 days after clinic discharge.
Plasma and urine samples were analyzed to measure concentrations of baxdrostat and its primary metabolite (baxdrostat-M) using a validated LC-MS/MS method. “Baxdrostat-M” as used herein refers a compound having the following structure:
Blood and urine samples were collected prior to and after dosing for measurement of plasma and urine baxdrostat and baxdrostat-M concentrations to characterize maximum observed plasma concentration (Cmax), time to Cmax (Tmax), AUC0-last, and AUC0-inf for baxdrostat and baxdrostat-M. The t1/2, CL/F, and V/F were calculated for plasma baxdrostat only. Urine PK parameters included the cumulative amount of baxdrostat and baxdrostat-M excreted in urine (Ae), renal clearance (CLR) of baxdrostat and baxdrostat-M, and fraction of dose excreted renally (Fe) for baxdrostat.

[2] = Plasma PK of baxdrostat and baxdrostat-M in the metformin crossover study (Example 6A); format: in vivo, human; details: single 10-mg dose of baxdrostat; for AUC(0-t) / Cmax / Tmax: human
Description: This study was designed as a phase 1, randomized, open-label, 2-period, crossover trial. Each subject participated in a screening period of up to 26 days followed by 2 inpatient treatment periods and a follow-up phone call. […] Plasma samples were extracted by protein precipitation with methanol, followed by analysis by LC-MS/MS with ESI(+) and MRM. Reversed-phase chromatographic separation with a mobile phase gradient of 20% to 90% was utilized, and total run time was approximately 5 minutes. […] PK parameters were calculated using noncompartmental methods with SAS software, version 9.4 (SAS Institute). […] Tmax; […] AUC0-t; AUC0-inf, AUC0-inf extrapolated; λz; and t1/2. Plasma AUC0-72 was assessed only for baxdrostat and baxdrostat-M. […] Urine PK parameters included Ae, renal clearance (calculated as Ae/AUC), and the fraction of dose excreted renally.

[3] = human, in vivo, 1000 mg
[4] = TEAEs by MedDRA class
[5] = clinical; details: human, in vivo; for CL renal: CLR (urine); for Tmax: Tmax (plasma)
[6] = PATHWAY-2 study; cited from earlier work

Tmax ([1]; human, plasma, oral, 10 mg, all renal function groups, after single 10 mg baxdrostat, read-out: Tmax): ~22 h | AUC(0-t) ([2]; read-out: AUC0-24, GM): 103 ng·h/mL | AUC(0-t) ([2]; read-out: AUC0-24, Mean): 111 ng·h/mL | AUC(0-t) ([2]; read-out: AUC0-72, GM): 248 ng·h/mL | AUC(0-t) ([2]; read-out: AUC0-72, Mean): 264 ng·h/mL | Cmax ([2]; read-out: Cmax, GM): 6.16 ng/mL | Cmax ([2]; read-out: Cmax, Mean): 6.72 ng/mL | Tmax ([2]; read-out: Tmax, GM): 12.4 h | Tmax ([2]; read-out: Tmax, Mean): 15.7 h | λz, GM [2]: 0.030 h⁻¹ | λz, Mean [2]: 0.030 h⁻¹
SMILES: CN1C(=O)CCc2cc(-c3cncc4c3CCCC4O)ccc21 (stereo not drawn) [baxdrostat-M]
plasma concentration-time curves vs control ([1]; moderate to severe renal impairment and kidney failure groups): qualitatively similar to the control group

AUC0-inf (plasma), GM [3]: 11,087.78 h · ng/mL | AUC0-inf (plasma), Mean [3]: 11,224.76 h · ng/mL | AUC0-t (plasma), GM [3]: 11,024.21 h · ng/mL | AUC0-t (plasma), Mean [3]: 11,158.75 h · ng/mL | Cmax (plasma), GM [3]: 1732.62 ng/mL | Cmax (plasma), Mean [3]: 1765.39 ng/mL | CL renal ([5]; 1000 mg, GM): 460 mL/min | CL renal ([5]; 1000 mg, Mean): 466 mL/min | Tmax ([5]; 1000 mg, Mean (SD)): 2.14 h | CL renal ([5]; GM): 430 mL/min | CL renal ([5]; Mean): 441 mL/min | Tmax ([5]; GM (CV %)): 1.92 h | Tmax ([5]; Mean (SD)): 2.04 h
SMILES: CN(C)C(=N)N=C(N)N [Metformin, metformin]
Abdominal pain upper, No. (%) [4]: 1 (3.8) No. (%) | Burns first degree, No. (%) [4]: 1 (3.8) No. (%) | Diarrhea, No. (%) [4]: 3 (11.5) No. (%) | Dizziness postural, No. (%) [4]: 0 (0.0) No. (%) | Flatulence, No. (%) [4]: 0 (0.0) No. (%) | Gastrointestinal disorders, No. (%) [4]: 4 (15.4) No. (%) | General disorders and administration site conditions, No. (%) [4]: 0 (0.0) No. (%) | Injury, poisoning, and procedural complications, No. (%) [4]: 1 (3.8) No. (%) | Nausea, No. (%) [4]: 1 (3.8) No. (%) | Nervous system disorders, No. (%) [4]: 0 (0.0) No. (%) | Presyncope, No. (%) [4]: 0 (0.0) No. (%) | Vessel puncture site pain, No. (%) [4]: 0 (0.0) No. (%) | Diarrhea, No. (%) ([4]; listed as metformin): 3 (11.5%) No. (%)

SMILES: CC(=O)S[C@@H]1CC2=CC(=O)CC[C@]2(C)[C@H]2CC[C@@]3(C)[C@@H](CC[C@@]34CCC(=O)O4)[C@H]12 [spironolactone]
rate of hyperkalemia [6]: 2.1%
